Data as given in publication PMC8851771, “Molecular action of larvicidal flavonoids on ecdysteroidogenic glutathione S-transferase Noppera-bo in Aedes aegypti” (BMC Biology, 2022).
Like-named read-outs stand apart in the source and are kept apart here.

Key:
[1] = tested on: Ae. aegypti 1st instar larvae; assay: Aedes aegypti larvicidal assay; assay type: in vivo; conditions: above 10 ppm, 24-h treatment
Procedure: To test this, we conducted larvicidal assays using Ae. aegypti larvae.
The dried eggs on filter papers were soaked in distilled water. Three hours after soaking, the first instar larvae were transferred to 30 mL of fresh distilled water in a 50-mL plastic cup with a lid containing air holes. In the rearing water, 2 mg of the powdered goldfish food (Hikari Medium Grain, Kyorin Co., Ltd.) was added to each cup as food for Ae. aegypti larvae. In each cup, we poured the 30 mL rearing water containing 1 ppm, 10 ppm, or 100 ppm of the compounds with 0.1% ethanol at the final concentration, followed by placing 20 larvae. Twenty-four hours after the addition of flavonoids, the number of living and dead larvae was recorded. Larvacidal assays under each condition were performed 5 times independently. The larval instars 24 h after the addition of DMG were identified by measuring the transverse diameter of the Ae. aegypti larval head. Photographs of whole bodies of larvae were taken and the head diameter was then measured using ImageJ software.

[2] = molecular target: AeNobo-E113A (Aedes aegypti, UniProt A0A1S4FIB3, E164K); assay: GST activity inhibition assay with 3,4-DNADCF, AeNobo-E113A; assay type: biochemical; conditions: at a concentration of 25 μM
Source text: The importance of the Glu-113–flavonoid hydrogen bond for flavonoid binding was biochemically examined with a recombinant mutated AeNobo protein carrying an E113A aa substitution (AeNobo-E113A).
(§1) pCold III plasmids expressing the AeNobo-E113A and AeNobo-F39L were constructed using KOD-Plus-Mutagenesis Kit (Toyobo). The following primers were used: E113A-F (5′-[…]-3′) and E113A-R (5′-[…]-3′) for AeNobo-E113A and F39L-F (5′-[…]-3′) and F39L-R (5′-[…]-3′) for AeNobo-F39L. We conducted inverse PCR using KOD-plus polymerase, pColdIII/AeNobo-WT plasmid, and the primer pair described above under the following conditions: pre-denaturation at 94 °C for 2 min, denaturation at 98 °C for 10 s, and extension at 68 °C for 6 min for 6 cycles. The PCR products were treated with DpnI at 37 °C for 1 h, followed by self-ligation using T4 polynucleotide kinase and Ligation High. After the transformation of DH5α bacteria using the ligation products, we extracted plasmid DNA from the colonies and verified their sequences to confirm whether the appropriate point mutations were introduced.
(§2) The IC50 value was measured using an in vitro assay system as described previously. A dilution series of compounds, ranging from 2.5 mM to 0.127 μM for DMG and from 2.5 mM to 4.9 μM for other compounds, was prepared by 2-fold serial dilution in DMSO. Five microliters of each diluted compound solution was mixed with 245 μL of solution A (100 mM sodium phosphate buffer at pH 6.5, 0.01% Tween 20, 2 mM GSH, and 50 ng/mL AeNobo-WT, 100 ng/mL AeNobo-E113A, and 200 ng/mL F39L). One hundred microliters of the mixture was dispensed into wells of a 96-well plate. One hundred microliters of solution B (0.2 μM 3,4-DNADCF and 100 mM sodium phosphate buffer at pH 6.5) was added to each well. In summary, the final reaction system comprised 100 mM sodium phosphate buffer (pH 6.5), 1 mM GSH, 0.005% Tween 20, 0.1 μM 3,4-DNACDF, and 25 ng/mL AeNobo, 50 ng/mL AeNobo-E113A, or 100 ng/mL AeNobo-F39L protein. The fluorescence intensity derived from 4-GS-3-NADCF, a product of this reaction, was measured for 3 min. IC50 values were estimated as described previously. The enzymatic assays under each condition were performed at least twice independently.

[3] = tested on: estrogen receptors (ERs); conditions: does not promote ER binding activity to estrogen response elements; cited from earlier work
[4] = tested on: D. melanogaster 1st instar larvae; assay: Drosophila melanogaster survival assay; assay type: in vivo; conditions: 10 ppm in food
Procedure: We also conducted larvicidal assays using D. melanogaster. When we placed D. melanogaster 1st instar larvae in food containing 10 ppm DMG, pupariation rate and pupation timing were not affected when compared with a control group (Additional file 1: Figure S10). […] A […] DMG stock solution was prepared in 100% DMSO. Ten microliters of the DMG stock solution or 10 μL of DMSO alone was mixed with 10 g of standard cornmeal medium and 1 mL of autoclaved water. The volume of the mixed food was approximately 10 mL, and therefore, the food contained 0.1% DMSO with or without 10 ppm DMG. Two grams of the food were dispensed into each 12-mL plastic vial (Sarstedt). D. melanogaster wild-type Canton-S were given the opportunity to lay eggs on a grape juice agar with yeast paste for 12 h. After egg collection, the embryos were reared at 25 °C for 24 h, and then 20 1st instar larvae were transferred to each vial and reared at 25°C. The numbers of pupae were counted daily, and the timing of pupation was recorded.

[5] = molecular target: AeNobo-F39L (Aedes aegypti, UniProt A0A1S4FIB3, F90L); assay: GST activity inhibition assay with 3,4-DNADCF, AeNobo-F39L; assay type: biochemical
Procedure: as §1
The IC50 value was measured using an in vitro assay system as described previously. A dilution series of compounds, ranging from 2.5 mM to 0.127 μM for DMG and from 2.5 mM to 4.9 μM for other compounds, was prepared by 2-fold serial dilution in DMSO. […] The fluorescence intensity derived from 4-GS-3-NADCF, a product of this reaction, was measured for 3 min. […]

[6] = molecular target: AeNobo-WT (Aedes aegypti, UniProt A0A1S4FIB3); assay: GST activity inhibition assay with 3,4-DNADCF, wild-type AeNobo; assay type: biochemical
Procedure: We prepared a purified AeNobo recombinant protein (220-aa length) using an Escherichia coli protein expression system. The GST enzymatic activity was examined using the fluorogenic artificial substrate 3,4-dinitrobenzamidedichlorofluorescein (3,4-DNADCF).
as §2, with “A dilution series of compounds, ranging from 2.5 mM to 0.127 μM for DMG and from 2.5 mM to 4.9 μM for other compounds, was prepared by 2-fold serial dilution in DMSO.” left out
To identify inhibitors of AeNobo enzymatic activity, a high-throughput screening was performed as described in a previous study. Briefly, a core library of 9600 compounds obtained from the Drug Discovery Initiative, The University of Tokyo, was utilized for screening. In this screen, the enzymatic activity of AeNobo was detected using 3,4-DNADCF [29]. […] Then, 1 μL of solution B (4 μM 3,4-DNADCF, 100 mM sodium phosphate at pH 6.5, and 0.005% Tween 20) was added into each well. In summary, the reaction system comprised 5.6 ng/mL AeNobo protein, 2 μM 3,4-DNADCF, 1 mM GSH, 0.005% Tween 20, and 100 mM sodium phosphate at pH 6.5, together with each compound at 10 μM. The plate was incubated for 30 min at 25–27 °C and 2 μL of 10 mM N-ethylmaleimide was added into each well to stop the reaction. […] For the second screen, we assayed the IC50 values of the compounds against the enzymatic activity of AeNobo.

[7] = tested on: DmNobo Asp-113 substituted with Ala; design: method as in PMID 32241910; conditions: cited from earlier work
[8] = molecular target: T1, DmNobo (Drosophila melanogaster, UniProt Q7JYX0); assay: GST activity inhibition assay with 3,4-DNADCF, DmNobo; assay type: biochemical
T1 construct: made in house; host or cells: E. coli

[9] = molecular target: T1, DmNobo; conditions: read-out: IC50 against DmNobo; cited from earlier work

AeNobo-WT, sequence (A0A1S4FIB3 entry or part of it): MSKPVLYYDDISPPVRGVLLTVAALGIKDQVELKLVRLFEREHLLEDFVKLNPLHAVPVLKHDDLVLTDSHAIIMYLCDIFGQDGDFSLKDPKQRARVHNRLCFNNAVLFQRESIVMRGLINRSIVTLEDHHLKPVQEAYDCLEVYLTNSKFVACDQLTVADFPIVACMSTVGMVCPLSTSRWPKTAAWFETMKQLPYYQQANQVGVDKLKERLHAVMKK
T1 sequence (Q7JYX0 whole entry): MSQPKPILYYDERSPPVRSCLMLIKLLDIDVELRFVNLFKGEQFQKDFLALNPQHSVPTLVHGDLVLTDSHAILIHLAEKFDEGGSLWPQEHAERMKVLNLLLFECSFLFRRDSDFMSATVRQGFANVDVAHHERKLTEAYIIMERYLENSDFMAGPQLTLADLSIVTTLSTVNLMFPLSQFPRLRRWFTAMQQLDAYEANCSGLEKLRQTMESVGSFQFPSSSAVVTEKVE
AeNobo-E113A, sequence (A0A1S4FIB3 entry or part of it E164K): as the sequence (A0A1S4FIB3 entry or part of it) above, with E113K counted along it
AeNobo-F39L, sequence (A0A1S4FIB3 entry or part of it F90L): as the sequence (A0A1S4FIB3 entry or part of it) above, with F39L counted along it

SMILES	Lethality [1]	Inhibition of enzymatic activity of AeNobo-E113A [2]	Estrogenic activity [3]	Development to adults [4]	Pupariation rate and pupation timing compared with control ([4]; 1st instar larvae)	IC50 [5] [nM]	IC50 ([6]; read-out: IC50 (μM) (mean ± s.d.)) [µM]	Inhibition of enzymatic activity of DmNobo with Asp-113 substituted with Ala [7]	IC50 [8] [nM]	IC50 [9] [nM]	IC50 against AeNobo relative to that against DmNobo ([6]; higher against AeNobo)	IC50 ([6]; text and figures, 3,4-DNADCF, read-out: IC50 against AeNobo (WT)) [µM]
O=c1c(-c2ccc(O)cc2)coc2cc(O)c(O)cc12 [Desmethylglycitein, 4′,6,7-trihydroxyisoflavone]	high lethality	not inhibited	does not exhibit estrogenic activity	most larvae became adults	not affected	1160	0.293 ± 0.012					
C[C@]12CC[C@@H]3c4ccc(O)cc4CC[C@H]3[C@@H]1CC[C@@H]2O [17β-estradiol]								does not inhibit	2330 ± 80	1200 to 2300	approximately 10 fold	21.3
